Laboratory results published in patent US20070274916A1, “Method for Identifying Compounds that Affect Expression of Tryptophan Hydroxylase Isoform 2” (priority 2003, published 2007).
Entries after “also recorded” stand apart in the source; their conditions may differ.

Experiments:
Assay type in all cases: in vivo, mouse
TPH2 mRNA [1] = assay: TPH2 mRNA levels in murine raphe slice preparation of ovariectomized female mice by real-time RT-PCR
From the text: Female mice (13 to 16 wks of age) were ovariectomized (C57BL/6s from Charles River; ER Knockout animals from Taconic). Animals were fed a soy-free rodent chow and allowed a minimum of one week to recuperate from surgery and shipping. […] Approximately six hours following the fourth dose, mice were deeply anesthetized with ketamine/xylazine and brains were removed from the skull, placed ventral side up in a mouse brain block on ice, and ice-cold razor blades were inserted into the block at 1 mm intervals. The caudal extent of the hypothalamus was used as an anatomical marker for the placement of the first razor blade, and 4 blades were placed in sequential slots, caudally. The four sections were examined and the two that encompassed the greatest extent of the dorsal raphe were placed in a tube containing […] (Ambion, Austin, Tex.) and placed at 4° C. overnight. Brain slices were removed from […] after 24 hours and stored at −80° C. in fresh tubes.
Two TPH2 primer and probe sets were generated for use in detecting TPH2 by real-time RT-PCR. Murine TPH2 forward primers were mTPH2-514F and mTPH2-1270F, their corresponding sequences are 5′-[…]-3′ (SEQ ID NO:7; corresponding to nucleotides 514 to 535 of the nucleotide sequence encoding TPH2) and 5′-[…]-3′ (SEQ ID NO:8; corresponding to nucleotides 1270 to 1290 of the nucleotide sequence encoding TPH2), respectively. The murine TPH2 reverse primers were mTPH2-585R and mTPH2-1344R, their corresponding sequences are 5′-[…]-3′ (SEQ ID NO:9; corresponding to nucleotides 567 to 585 of the nucleotide sequence encoding TPH2) and 5′-[…]-3′ (SEQ ID NO:10; corresponding to nucleotides 1324 to 1344 of the nucleotide sequence encoding TPH2), respectively. The murine TPH2 probes were mTPH2-565T and mTPH2-1292T, their corresponding sequences are: 5′-[…]-3′ (SEQ ID NO:11; corresponding to nucleotides 539 to 565 of the nucleotide sequence encoding TPH2) and 5′-[…]-3′ (SEQ ID NO:12; corresponding to nucleotides 1292 to 1317 of the nucleotide sequence encoding TPH2), respectively. The probes were labeled at the 5′ end with FAM and the 3′ end with TAMRA.
Isolation of total RNA from mouse raphe slices for real-time PCR analysis using the TAQMAN ABI PRISMS 7700 Detection System, Applied Biosystems, Foster City, Calif. was as follows. Samples were stored in […] at 4° C. overnight followed by removal of […] and storage at −80° C. until isolation of the total RNA (2 slices weigh 25 to 50 mg). Slices were removed from −80° C. and placed in 1.0 mL TRIZOL Reagent in FASTPREP processing tubes. Slices were homogenized with one pass at setting 6 for 30 seconds in FASTPREP 120 homogenizer using LYSING MATRIX D tubes with bead matrix followed by 20 seconds at setting 6 after all samples had been processed. Samples were set at room temperature for 5 minutes to allow for complete dissociation of nucleoprotein complexes followed by centrifugation of the samples at 12,000×g for 5 minutes at 4° C. Homogenates were transferred to 1.5 mL; microcentrifuge tubes and 100 μL BCP (Bromo-3-chloropropane) was added. Samples were vortexed for 15 seconds and set at room temperature for 2 to 3 minutes. Samples were centrifuged at 12,000×g for 15 minutes at 4° C. The aqueous layer was removed and placed in a new RNAse-free sterile 1.5 mL microcentrifuge tube. Five μL of 5 mg/μL glycogen was added to each sample and the samples were vortexed. Five hundred μL of isopropanol was added to each sample. The samples were vortexed for 15 seconds, set at room temperature 10 minutes, followed by centrifugation at 12,000×g for 15 minutes at 4° C. Supernatants were decanted and pellets washed with 500 μL ice cold 75% ethanol.

TPH2 mRNA [2] = assay: TPH2 mRNA in murine DRN by in situ hybridization histochemistry; conditions: for reduction of TPH2 mRNA levels in DRN (densitometry): ovariectomized female mice, FIG. 13B
TPH2 mRNA [3] = assay: TPH2 mRNA levels in raphe slice preparations from intact male mice by real-time RT-PCR
Procedure: Ovariectomized C57/BL6 female mice (13 to 16 wks of age) were from Charles River Laboratories and intact C57/BL6 male mice (13 to 16 wks of age) were from Taconic Laboratories. Animals were fed a soy-free rodent chow and allowed a minimum of one week to recuperate from surgery and shipping. Mice were dosed subcutaneously in the morning (once daily for 4 days) with 0.1 cc of vehicle (sesame oil) or compound (dose is indicated for each experiment). Approximately six hours following the fourth dose, mice were deeply anesthetized with ketamine/xylazine.
For real-time RT-PCR analyses brains were removed from the skull, placed ventral side up in a mouse brain block on ice, and ice-cold razor blades are inserted into the block at 1 mm intervals. The caudal extent of the hypothalamus was used as an anatomical marker for the placement of the first razor blade, and 4 blades are placed in sequential slots, caudally. The four sections are examined and the two that encompass the greatest extent of the dorsal raphe are placed in a tube containing RNA-later and placed at 4° C. overnight. Brain slices were removed from RNALATER (Ambion) after 24 hr and stored at −80° C. in fresh tubes. An n of seven animals was used per treatment group for real-time RT-PCR studies. For in situ hybridization histochemistry brains are removed from the skull and placed ventral side up on powdered dry ice and frozen brains are stored at −80° C. until sectioning. An n of 5 to 6 animals was used per treatment group for in situ hybridization histochemistry analyses.
The murine TPH2 primers were mTPH2-514F and mTPH2-585R and the murine TPH2 probe was mTPH2-565T. mTPH2-565T was labeled with the fluorescent dye FAM and the quencher TAMRA.
Isolation of total RNA from murine raphe slices for TAQMAN analysis has been described in Example 2. Genomic DNA was removed from the total RNA samples using the DNA-FREE kit (Ambion) and cDNA synthesis performed using Multiscribe RT and the TaqMan Gold RT reagents (ABI). Reverse transcription was halted by the addition of EDTA. Samples were transferred to a storage plate and stored at −20° C.
Real-time PCR analyses using TAQMAN was as follows. A 2.5 μL of cDNA was added to each well of a 96well plate with 22.5 μl of TaqMan® reaction mix (1× Universal Master Mix (ABI), 20 nM forward and reverse 18S rRNA control primers, and 100 nM 18S rRNA control probe (ABI) and 300 nM mTPH2-514F and mTPH2-585R primers, 200 nM mTPH2-565T probe. Samples were run on an ABI PRISM 7700 Sequence Detection Instrument (Applied Biosystems (ABI), Foster City, Calif.) and collected data was analyzed using Merck Biometrics TAQMAN Plus program and statistical significance determined using a one-way ANOVA (CMG, Merck Biometrics).

Structure (SMILES): C[C@]12CC[C@@H]3c4ccc(O)cc4CC[C@H]3[C@@H]1CC[C@@H]2O [17β-estradiol]
- effect on expression of TPH2 mRNA in raphe slice (TPH2 mRNA [1]; 0.025 to 0.2 mpk s.c. once daily for four days, FIG. 4C): no apparent effect
- effect on TPH2 mRNA in the DRN (TPH2 mRNA [2]; 0.2 mpk s.c. once daily for four days, ovariectomized mice, TPH2c riboprobe, FIG. 5B): no apparent effect
- effect on TPH2 mRNA levels (TPH2 mRNA [3]; dose not stated): no effect

Structure (SMILES): C[C@@H]1C[C@H]2[C@@H]3CCC4=CC(=O)C=C[C@]4(C)[C@@]3(F)[C@@H](O)C[C@]2(C)[C@@]1(O)C(=O)CO [dexamethasone]
- reduction in TPH2 mRNA levels (TPH2 mRNA [1]; 0.1 mg/kg s.c. once daily for four days, FIG. 14): 23%
- reduction in TPH2 message levels (TPH2 mRNA [1]; 1 mg/kg once daily for four days, FIG. 14): 30%
- reduction in TPH2 mRNA levels (TPH2 mRNA [1]; 3 mg/kg s.c. once daily for four days, FIG. 14): 44%
- reduction in TPH2 mRNA levels (TPH2 mRNA [1]; dexamethasone 3 mg/kg once daily for four days, FIG. 9): 40%
- reduction of TPH2 mRNA levels in DRN (densitometry) (TPH2 mRNA [2]; 3 mg/kg s.c. once daily for four days): 28%
- reduction of TPH2 mRNA levels in DRN (densitometry) (TPH2 mRNA [2]; 10 mg/kg s.c. once daily for four days): 36%
- reduction in TPH2 mRNA levels (TPH2 mRNA [3]; 1 mpk once daily for four days, FIG. 15): 26%

Structure (SMILES): CC#C[C@]1(O)CC[C@H]2[C@@H]3CCC4=CC(=O)CCC4=C3[C@@H](c3ccc(N(C)C)cc3)C[C@@]21C [mifepristone]
- effect on TPH2 mRNA expression compared to vehicle (TPH2 mRNA [1]; RU486 10 mpk once daily, TPH2-514 or TPH2-1270 primer/probe set, FIG. 7, 10 mg/kg): decrease; also recorded: significant reduction
- effect on TPH2 mRNA expression (TPH2 mRNA [1]; RU486 20 mpk once daily, TPH2-514 primer/probe set, FIG. 8, 20 mg/kg): further reduction; also recorded: significant reduction
- glucocorticoid agonist/antagonist character shown by TPH2 mRNA expression (TPH2 mRNA [1]; alone and mixed with dexamethasone, Example 2): mixed or partial agonist
- effect on the dexamethasone reduction of TPH2 mRNA levels (TPH2 mRNA [1]; co-administered with 3 mg/kg dexamethasone, ovariectomized female mice, FIG. 9, 3 mg/kg): blocked; also recorded: antagonizes
- reduction in TPH2 mRNA levels (TPH2 mRNA [1]; mifepristone alone, 20 mg/kg, FIG. 9): 28%
- effect on the dexamethasone reduction of TPH2 mRNA levels (TPH2 mRNA [3]; co-administered with 1 mg/kg dexamethasone, FIG. 15, 1 mg/kg): blocked; also recorded: antagonizes
- effect on TPH2 message levels (TPH2 mRNA [3]; mifepristone alone, 30 mg/kg): no effect
